Measurements from patent publication US7998460B2, “Prevention of deficits in neurogenesis with anti-inflammatory agents” (The Board of Trustees of the Leland Stanford Junior …, priority 2003, dated 2011).

Experiments:
[1] = Mortality with indomethacin in mice; type: in vivo, mouse; details: higher dose (5 mg/kg BID)
Excerpt: The propensity of NSAIDs to induce ulceration and bleeding often outweigh the anti-inflammatory benefits. […] NSAIDs that more selectively target Cox-2, such as roficoxib and celecoxib, are well tolerated and have been widely used as alternatives to broad spectrum NSAIDs for controlling inflammation. In addition, the selective agonism of PPAR-γ is an effective anti-inflammatory strategy, e.g., through administration of thiazolidinediones such as rosiglitazone or pioglitizone. […] Mice were started on a 16 day preventative course of oral NSAID and then challenged with a single IP injection of LPS (5 mg/kg) and then BrdU (50 mg/kg) over 6 days beginning 2 h after LPS. The mice were either perfused 28 days after LPS injection, or trained and tested in the Morris water maze.
NSAID treatment. One half of the saline- and LPS-treated mice were fed non-steroidal anti-inflammatory drug (NSAID), in low fat strawberry milk, twice per day for two weeks following LPS injection (Days 0-13). The mice were initially introduced to low fat strawberry milk (Berkeley Farms, Calif.; 200 μl per animal) in their home cages, four days before LPS was injected (Days […]) and were then placed in a PVC tube (10-cm diameter×18-cm height), twice per day (12 h apart) beginning two days before LPS was injected (Days −2 and −1) until they consumed a 100 μl volume of low fat strawberry milk. […]

[2] = test system: adult hippocampus-derived neural precursor cells; assay: In vitro neuronal differentiation (doublecortin) of hippocampal neural progenitor cells, 60 hours; type: cell-based, rat; details: 60 hours differentiation
Excerpt: Neuroinflammation could inhibit neurogenesis by a variety of mechanisms, including stimulation of the HPA axis with subsequent elevation of gluccocorticoids, alterations in the relationships between progenitor cells and cells of the neuro-vasculature, or direct effects of activated microglia on the precursor cells. To determine the extent to which microglial activation might directly affect neural stem/progenitor cells, microglia were stimulated in vitro with LPS. LPS is a potent activator of microglia and up-regulates the elaboration of pro-inflammatory cytokines, including IL-6 and TNF-α. LPS-stimulated or resting microglia were then co-cultured with normal neural stem cells from the hippocampus under conditions that typically stimulate the differentiation of 30 to 40% of the progenitor cells into immature Dcx-expressing neurons (normalized to a value of 1 in FIG. 2A, control). Neurogenesis in the presence of microglia was assessed as the increase or decrease in Dcx-expressing cells relative to control. Co-culture with activated, but not resting, microglia decreased in vitro neurogenesis to approximately half of control levels (FIG. 2A). LPS added directly to precursor cells had no effect on neurogenesis.
To determine if this effect was due to soluble factors or due to cell-cell contact, hippocampal precursor cells were differentiated in the presence of media pre-conditioned by resting or activated microglia.
Activated microglia produce the potent pro-inflammatory cytokines interleukin-1β (IL-1β), tumor necrosis factor-α (TNF-α), interferon-γ (INF-γ) and interleukin-6 (IL-6). Progenitor cells were allowed to differentiate in the presence of each cytokine and the relative expression of Dcx was scored after 60 hours. […] Addition of neutralizing anti-IL-6 antibody to CM from activated microglia was able to fully restore in vitro neurogenesis (FIG. 2A). This implicated IL-6 as a key inhibitor of neurogenesis in microglial CM. […] In contrast to neurogenesis, gliogenesis was unaffected by IL-6 exposure as indicated by the lack of change in the number of cells expressing the astrocyte (glial fibrillary acidic protein, GFAP) or early oligodendrocyte (NG2) markers relative to control cultures (FIG. 2E). The hippocampal precursors used in this study do express the IL-6 receptor, as confirmed by RT-PCR (FIG. 5).
Progenitor Cell Culture Adult hippocampus-derived neural precursor cells were isolated from adult rat hippocampus and cultured as previously described. Briefly, adult female Fisher-344 rats were deeply anesthetized with sodium pentobarbital and were dissected immediately. Hippocampi were enzymatically dissociated with papain (2.5 U/ml; Worthington, Freehold, N.J.)-dispase II (1 U/ml; Boehringer Mannheim, Indianapolis, Ind.)-DNase I (250 U/ml, Worthington) solution. Digested tissue was then washed with DMEM-10% fetal calf serum (FCS) and subsequently mixed with PBS-equilibrated Percoll solution to a final concentration of 35% Percoll. The Percoll solution was made by mixing nine parts of Percoll (Amersham Pharmacia Biotech, Uppsala, Sweden) with one part of 10× PBS. The cell suspension was then fractionated by centrifugation for 10 min at 1000×gravity. Floating myelin and tissue debris were discarded and the cell pellet re-suspended in 65% Percoll solution and fractionated again by centrifugation for 10 min at 1000×g. The floating neural precursors were collected, washed free of Percoll, and plated onto poly-L-ornithine/laminin-coated dishes in DMEM/F12 (1:1) containing 10% FCS medium for 24 hrs; then medium was replaced with serum-free growth medium consisting of DMEM/F12 (1:1) supplemented with N2 supplement (Life Technologies, Gaithersburg, Md.) and 20 ng/ml of human recombinant FGF-2 (Peprotech, Rocky Hill, N.J.). Cell lines were labeled via infection with replication deficient GFP-expressing recombinant retrovirus LZRS-CAMut4GFP. […]

Compound	mortality [1] [%]	effect on in vitro neurogenesis (Dcx-expressing cells relative to control) [2]
COc1ccc2c(c1)c(CC(=O)O)c(C)n2C(=O)c1ccc(Cl)cc1 [indomethacin]	100	–
lipopolysaccharide [LPS]	–	no effect
